Results: ChEMBL document CHEMBL1140703, “Design, synthesis, and biological evaluation of classical and nonclassical 2-amino-4-oxo-5-substituted-6-methylpyrrolo[3,2-d]pyrimidines as dual thymidylate synthase and dihydrofolate reductase inhibitors” (J Med Chem, 2008)

Legend:
Thymidylate synthase [1] = molecular target: Thymidylate synthase (Homo sapiens, UniProt P04818); assay: Inhibition of human thymidylate synthase
Thymidylate synthase [2] = molecular target: Thymidylate synthase (Escherichia coli, UniProt C3SWJ7); assay: Inhibition of Escherichia coli thymidylate synthase
[3] = Inhibition of Toxoplasma gondii thymidylate synthase
[4] = Inhibition of Escherichia coli DHFR
[5] = Inhibition of Toxoplasma gondii DHFR
[6] = Selectivity ratio of IC50 for Toxoplasma gondii DHFR over IC50 for human recombinant DHFR
[7] = molecular target: Thymidylate synthase (Escherichia coli) (UniProt C3SWJ7); assay: Inhibition of Escherichia coli thymidylate synthase at >20 uM
Toxoplasma gondii [8] = assay: Inhibition of Toxoplasma gondii thymidylate synthase at >20 uM
[9] = molecular target: T1, Dihydrofolate reductase (Homo sapiens) (UniProt P00374); assay: Inhibition of human recombinant DHFR at >[…] uM
T1 sequence (whole entry): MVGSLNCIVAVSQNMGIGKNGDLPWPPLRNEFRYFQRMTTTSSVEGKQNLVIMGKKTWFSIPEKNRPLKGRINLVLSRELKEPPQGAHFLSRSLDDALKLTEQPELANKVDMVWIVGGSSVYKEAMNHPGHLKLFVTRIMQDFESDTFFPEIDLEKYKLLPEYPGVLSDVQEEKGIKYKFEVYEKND

Escherichia coli [10] = assay: Inhibition of Escherichia coli DHFR at >[…] uM
Dihydrofolate reductase = molecular target: T2, Dihydrofolate reductase (Homo sapiens, UniProt P00374)
T2 sequence (P00374 whole entry): T1 sequence (whole entry)

Toxoplasma gondii [11] = assay: Inhibition of Toxoplasma gondii thymidylate synthase at >[…] uM
[12] = molecular target: T1, Dihydrofolate reductase (Homo sapiens); assay: Inhibition of human recombinant DHFR at >62 uM
[13] = molecular target: Thymidylate synthase (Escherichia coli) (UniProt C3SWJ7); assay: Inhibition of Escherichia coli thymidylate synthase at >[…] uM
[14] = molecular target: Thymidylate synthase (Escherichia coli) (UniProt C3SWJ7); assay: Inhibition of Escherichia coli thymidylate synthase >[…] uM
Escherichia coli [15] = assay: Inhibition of Escherichia coli DHFR at >30 uM

Thymidylate synthase (Homo sapiens, UniProt P04818), sequence (P04818 whole entry): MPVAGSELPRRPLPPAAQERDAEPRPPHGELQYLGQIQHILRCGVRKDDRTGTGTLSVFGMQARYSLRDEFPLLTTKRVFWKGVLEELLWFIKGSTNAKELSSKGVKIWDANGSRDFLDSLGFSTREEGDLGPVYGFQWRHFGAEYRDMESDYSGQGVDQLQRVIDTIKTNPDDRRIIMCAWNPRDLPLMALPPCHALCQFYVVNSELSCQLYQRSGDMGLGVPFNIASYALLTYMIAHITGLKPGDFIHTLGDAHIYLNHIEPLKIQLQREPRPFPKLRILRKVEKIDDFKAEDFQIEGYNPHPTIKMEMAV
Thymidylate synthase (Escherichia coli, UniProt C3SWJ7), sequence (C3SWJ7 whole entry): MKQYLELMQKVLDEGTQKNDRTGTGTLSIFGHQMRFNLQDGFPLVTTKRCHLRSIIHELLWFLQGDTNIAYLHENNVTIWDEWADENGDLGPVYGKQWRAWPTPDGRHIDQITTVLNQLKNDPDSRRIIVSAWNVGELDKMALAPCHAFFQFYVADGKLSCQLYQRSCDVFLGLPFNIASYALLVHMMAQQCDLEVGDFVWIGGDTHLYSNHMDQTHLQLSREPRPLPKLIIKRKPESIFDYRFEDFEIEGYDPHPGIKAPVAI
Thymidylate synthase (Escherichia coli), sequence (C3SWJ7 1-264): as the sequence (C3SWJ7 whole entry) above

Row | Structure (SMILES) | IC50 (Thymidylate synthase [1]) [µM] | IC50 (Thymidylate synthase [2]) [µM] | IC50 [3] [µM] | IC50 [4] [µM] | IC50 [5] [µM] | Ratio IC50 [6] | inhibition [7] [%] | inhibition (Toxoplasma gondii [8]) [%] | inhibition [9] [%] | inhibition (Escherichia coli [10]) [%] | IC50 (Dihydrofolate reductase) [µM] | inhibition (Toxoplasma gondii [11]) [%] | inhibition [12] [%] | inhibition [13] [%] | inhibition [14] [%] | inhibition (Escherichia coli [15]) [%]
1 | Cc1cc2nc(N)[nH]c(=O)c2n1Cc1cc(Br)cc(Br)c1 | 10 | > 20 | > 20 | > 24 | 24 | > 1 | 36 | 24 | 0 | 0 | > 24 | – | – | – | – | –
2 | Cc1cc2nc(N)[nH]c(=O)c2n1Cc1ccncc1 | 2.3 | 12 | 15 | 39 | 20 | > 1.8 | – | – | – | – | > 37 | – | – | – | – | –
3 | Cc1cc2nc(N)[nH]c(=O)c2n1Cc1ccc(OC(F)(F)F)cc1 | 1.3 | 7.5 | 13 | > 35 | 0.3 | > 117 | – | – | – | 0 | > 35 | – | – | – | – | –
4 | Cc1[nH]c2nc(N)[nH]c(=O)c2c1Sc1ccc([N+](=O)[O-])cc1 | – | – | – | – | – | – | – | – | – | – | > 54 | – | – | – | – | –
5 | COc1ccc(Cn2c(C)cc3nc(N)[nH]c(=O)c32)cc1 | 1.5 | 15 | 17 | > 35 | 3.5 | > 10 | – | – | – | 0 | > 35 | – | – | – | – | –
6 | Cc1cc2nc(N)[nH]c(=O)c2n1Cc1ccc(Cl)c(Cl)c1 | 5.4 | 27 | 27 | > 32 | 1.6 | > 20 | – | – | – | 0 | > 32 | – | – | – | – | –
7 | Cc1cc2nc(N)[nH]c(=O)c2n1Cc1ccccc1 | 20 | > 39 | > 39 | > 39 | 3.9 | > 10 | – | – | – | – | > 39 | 0 | – | – | – | –
8 | Cc1cc2nc(N)[nH]c(=O)c2n1Cc1ccc([N+](=O)[O-])cc1 | 1.4 | 14 | 28 | > 33 | 0.33 | 100 | – | – | – | 0 | 33 | – | – | – | – | –
9 | Cc1cc2nc(N)[nH]c(=O)c2n1Cc1ccc(F)cc1 | 3.7 | 31 | 22 | > 37 | 1.8 | > 20.5 | – | – | – | 0 | > 37 | – | – | – | – | –
10 | Cc1[nH]c2nc(N)[nH]c(=O)c2c1Sc1ccc(Cl)c(Cl)c1 | – | – | – | – | – | – | – | – | – | – | > 62 | – | 0 | – | – | –
11 | Cc1cc2nc(N)[nH]c(=O)c2n1Cc1ccc(Cl)cc1 | 2.9 | 1.5 | 17 | > 35 | 0.35 | > 100 | – | – | – | 0 | > 35 | – | – | – | – | –
12 | Cc1cc2nc(N)[nH]c(=O)c2n1Cc1cc(Cl)cc(Cl)c1 | > 26 | > 26 | > 26 | > 31 | 15 | > 2.1 | – | – | – | 0 | > 31 | 13 | – | 0 | 15 | –
13 | Cc1cc2nc(N)[nH]c(=O)c2n1Cc1ccc(C(=O)N[C@@H](CCC(=O)O)C(=O)O)cc1 | 0.046 | 0.069 | 0.23 | > 23 | 0.023 | 5.2 | – | – | – | 23 | 0.12 | – | – | – | – | –
14 | Cc1cc2nc(N)[nH]c(=O)c2n1Cc1ccc(Br)cc1 | 1.3 | 7.5 | 18 | > 30 | 0.27 | > 130 | – | – | – | – | > 35 | – | – | – | – | 10
